The values that follow come from ChEMBL document CHEMBL1201862, “PubChem BioAssay data set” (2004).

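Five compound concentrations were applied to cells in 96-well plates for 48 hours; endpoints were derived by simple linear interpolation of the resulting dose-response curve. GI50 is the concentration that inhibits growth by half.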 Active and inactive are the calls of the source. No stated cut-off is given here; in the data, active = GI50 up to about 1.1 µM and inactive = higher. Bounds are passed on as bounds.

Holding throughout (test): inhibition of tumour cell growth, NCI panel, 48 h
In experiment [1] the test system is HOP-18.
For experiment [2], the system named is SNB-78.
Experiment [3] deals with XF498.
The subject of experiment [4] is LXFL 529.
Experiment [5] relates to RXF 631.
Experiment [6] concerns DMS-273.
In experiment [7] the test system is KM-20L2.
For experiment [8], the system named is DMS-114.
Experiment [9] concerns BT-549.

`O=C/C(=C(/Cl)c1ccc(O)cc1)c1ccccc1`: the GI50 was 20.2 µM (inactive) in experiment [1]; 32.7 µM (inactive) in experiment [2]; 18.9 µM (inactive) in experiment [3]; 25.4 µM (inactive) in [4]; 24.8 µM (inactive) in experiment [5]; 18.8 µM (inactive) in experiment [6]. Also, the GI50 in [7] is 31 µM (inactive); in [8], 12.3 µM (inactive).

For the compound `CC1=C(C(=O)NNS(=O)(=O)c2ccc(C)cc2)CC(C(=O)NNS(=O)(=O)c2ccc(C)cc2)=C(C)N1`, the GI50 is 27.1 µM (inactive) in [1]; > 100 µM (inactive) in experiment [2]; > 100 µM (inactive) in experiment [3]; 52.1 µM (inactive) in experiment [4]; > 100 µM (inactive) in experiment [5]; > 100 µM (inactive) in experiment [7]. Moreover, the GI50 in experiment [8] is > 100 µM (inactive).

In the case of `COc1ccc(N2C(=O)C3c4[nH]c5ccccc5c4C4CC(C)CC(C)C4C3C2=O)cc1` (configuration not stated), the GI50 in experiment [1], in [2], in experiment [3], in experiment [4], in experiment [6] and in experiment [7] was > 100 µM (inactive) throughout. Moreover, the GI50 in experiment [8] is > 100 µM (inactive).

For `O=c1c(Cc2ccccc2)c(O)cc2n1CCC2`, the GI50 in experiment [1], in experiment [2], in experiment [3], in experiment [4], in experiment [5] and in experiment [7] was > 100 µM (inactive) each time. The GI50 in [8] is > 100 µM (inactive).

For the compound `Cc1oc2c(C)c(O)c3c(c2c1C1(C)OCCO1)C(=O)C=C(Cl)C3=O`, the GI50 is > 100 µM (inactive) in [2]; 33.3 µM (inactive) in experiment [3]; > 100 µM (inactive) in experiment [4]; > 100 µM (inactive) in experiment [5]; > 100 µM (inactive) in experiment [6]; > 100 µM (inactive) in experiment [7].

As for `Cc1ccccc1NC(=O)CC(=O)NNCC(=O)Nc1nnc(-c2ccccc2)s1`, the GI50 in [1] is 29 µM (inactive); in [2], > 100 µM (inactive); in experiment [3], 31.9 µM (inactive); in experiment [4], 39.2 µM (inactive); in [5], > 100 µM (inactive); in [6] it was 73.6 µM (inactive). Besides, the GI50 in experiment [7] was > 100 µM (inactive); in experiment [8], 43.6 µM (inactive).

Take `CC1=C(C(=O)Nc2ccccc2C)C(c2ccc(Cl)cc2)C(C(=O)Nc2ccccc2C)=C(C)N1`: the GI50 was > 100 µM (inactive) in experiment [1]; > 100 µM (inactive) in experiment [2]; 81.3 µM (inactive) in experiment [3]; > 100 µM (inactive) in experiment [4]; > 100 µM (inactive) in experiment [5]; > 100 µM (inactive) in experiment [8].

`Cc1ccc(NC(=O)C(=O)C2C(=O)N(c3ccccc3)N=C2N)cc1C` (configuration not stated): the GI50 in experiment [1], in [2], in experiment [3], in experiment [4], in experiment [5] and in [6] was > 100 µM (inactive) each time. The GI50 in [7] and in experiment [8] was > 100 µM (inactive) in each case.

With `CC[P+]1(c2ccccc2)CCCCC1`, the GI50 in [1], in [2], in experiment [4], in experiment [5], in [6] and in experiment [7] was > 100 µM (inactive) each time. Moreover, the GI50 in experiment [8] was > 100 µM (inactive).

As to `O=CN/C=C\c1cc(O)ccc1O`, the GI50 in experiment [1] was 16.8 µM (inactive); in [2], 70 µM (inactive); in experiment [3], 15.4 µM (inactive); in experiment [4], 10.8 µM (inactive); in experiment [6], 7.11 µM (inactive); in experiment [7], 14.8 µM (inactive). The GI50 in [8] was 14.5 µM (inactive).

`N#CC12Cc3cc4c(cc3-c3cccc(c31)CCN2C(=O)c1ccccc1)OCO4` (configuration not stated): the GI50 in experiment [1] was > 100 µM (inactive); in experiment [2], 51.6 µM (inactive); in experiment [3], 24.2 µM (inactive); in [4], > 100 µM (inactive); in experiment [6] it was > 100 µM (inactive); in experiment [7] it was > 100 µM (inactive). In addition, the GI50 in experiment [8] is 83 µM (inactive).

Regarding `Cc1[nH]c(=O)nc(N/N=C/c2ccc(Cl)cc2)c1C(=O)Nc1ccc(Cl)cc1`, the GI50 in experiment [1] is 1.22 µM (inactive); in experiment [2], > 100 µM (inactive); in experiment [3] it was 4.68 µM (inactive); in experiment [4] it was 23 µM (inactive); in experiment [6], 12.6 µM (inactive); in [7] it was > 100 µM (inactive). The GI50 in experiment [8] is 18.2 µM (inactive); in experiment [9], > 100 µM (inactive).

`COc1ccc(C2C3=C(COC3=O)Oc3cc4c(cc32)OCO4)cc1` (configuration not stated): the GI50 in experiment [1] was 18.6 µM (inactive); in experiment [2], 16.6 µM (inactive); in experiment [3], 7.18 µM (inactive); in experiment [6], 5.26 µM (inactive); in experiment [7], 11.9 µM (inactive); in [8] it was 4.3 µM (inactive).

With `CC1[C@@]2(CCC(C)(C)O2)O[C@@H]2C=C3C4CCC5Cc6nc7c(nc6C[C@@]5(C)C4C[C@H](O)[C@@]3(C)[C@]12O)CC1CCC2C3=C[C@H]4O[C@@]5(O[C@@](C)(CO)C[C@@H]5O)C(C)[C@@]4(O)[C@]3(C)[C@@H](O)CC2[C@]1(C)C7` (some centres not stated), the GI50 is 0.043 µM (active) in experiment [2]; 0.322 µM (active) in [3]; 0.0254 µM (active) in experiment [4]; 0.0198 µM (active) in experiment [5]; 0.0123 µM (active) in [6]; 0.0509 µM (active) in experiment [7]. In addition, the GI50 in experiment [8] is 0.0268 µM (active).

`COc1ccccc1/C=C\c1cc(OC)c(OC)c(OC)c1`: the GI50 is > 100 µM (inactive) in [1]; 28.3 µM (inactive) in experiment [2]; 9.64 µM (inactive) in experiment [3]; 12.9 µM (inactive) in [4]; 15.8 µM (inactive) in experiment [5]; 4.62 µM (inactive) in experiment [6]. Besides, in experiment [8], the GI50 was 6.41 µM (inactive).

Turning to `Cc1ccc2c(ccc(/C=C/c3ccc(O)c4ncccc34)[n+]2C)c1`, the GI50 in experiment [1] was 13.1 µM (inactive); in experiment [2] it was 9.77 µM (inactive); in experiment [3], 3.19 µM (inactive); in experiment [4], 1.16 µM (inactive); in [6], 2.07 µM (inactive); in experiment [7], 4.85 µM (inactive). In addition, in experiment [8], the GI50 is 0.489 µM (active).

For the compound `C=CCC1(CN(C)C)CC/C(=C\c2cc(OC)c(OC)c(OC)c2)C1=O` (configuration not stated), the GI50 in [1] is 22.3 µM (inactive); in experiment [2], 28.1 µM (inactive); in [4] it was 17.9 µM (inactive); in experiment [5] it was 25.6 µM (inactive); in [6] it was > 10 µM (inactive); in experiment [7] it was 22 µM (inactive). The GI50 in experiment [8] was 18.6 µM (inactive).

As for `Cc1cccc(NC2=NC(=O)C(CC(=O)Nc3ccccc3Cl)S2)c1` (configuration not stated), the GI50 in experiment [2] is > 100 µM (inactive); in experiment [3], 95.1 µM (inactive); in [4], > 100 µM (inactive); in [5], > 100 µM (inactive); in [6], > 100 µM (inactive); in [7], > 100 µM (inactive). In addition, the GI50 in experiment [8] is > 100 µM (inactive).
